Measured values: patent US20180340225A1 (SHANGHAI INSTITUTE FOR ENDOCRINE AND METABOLIC DISEASES, priority 2015, published 2018)

Test system: patients with Type 2 diabetes
Test: Clinical efficacy indexes before and after 3 months of Acarbose treatment in naïve patients with Type 2 diabetes, by enterotype
Format: in vivo, human
Conditions: Bacterioide enterotype, After treatment
Description: For naïve patients with Type 2 diabetes, their liver and kidney functions, blood glucose and lipid levels, intestinal hormones, inflammatory factors, and cardiovascular risk-related factors are evaluated before medication. Their stool, urine, and blood samples are retained. […] The patients' blood glucose levels are followed up every month within 3 months, and the medication is adjusted according to the blood glucose level. Three months later, the pre-medication assessment is repeated, and the urine, stool and blood samples are retained.
a) A randomized, opened, positive control method is adopted to collect the naïve patients with Type 2 diabetes and normal controls of their spouses. […] The newly diagnosed patients of Type 2 diabetes without medication receive routine examinations, including the retention of stool and blood samples.
i. Draw venous blood 15 ml under fasting condition, of which, 1.5 ml is used for detection of plasma glucose, 6.5 ml is added to ordinary tubes (including aprotinin, DPPV inhibitor), and 6.5 ml is added to anticoagulant tubes (including heparin and RNA later)
ii. Centrifuge the blood in ordinary tube at 4° C., when serum is separated out, draw about 3 ml, and divide to three 1.5 ml Eppendorf on average, then tighten the tube caps;
iii. Centrifuge the anticoagulation blood immediately at 4° C., to separate out about 3 ml of plasma, then divide to three 1.5 ml imported RNAase free Eppendorf tubes on average, […]

For `C[C@H]1O[C@H](O[C@H]2[C@H](O)[C@@H](O)[C@@H](O[C@H]3[C@H](O)[C@@H](O)C(O)O[C@@H]3CO)O[C@@H]2CO)[C@H](O)[C@@H](O)[C@@H]1N[C@H]1C=C(CO)[C@@H](O)[C@H](O)[C@H]1O` (stereo partly shown) [Acarbose], the “AKP Mean” value was 59.23, the “ALB Mean” value was 42.26 and the “ALT Mean” value was 29.43. For the same molecule, the “APOA Mean” value was 1.2475, the “APOB Mean” value was 0.9636 and the “AST Mean” value was 22.46. The “Adipisin Mean” value was 3174901.441, the “Adpn Mean” value was 5157339.824 and the “BMI Mean” value was 25.51. For the same molecule, the “BW Mean” value was 71.91, the “CP0 Mean” value was 2.216 and the “CP30 Mean” value was 2.7525. The “CP60 Mean” value was 3.71, the “CP120 Mean” value was 5.204 and the “CP180 Mean” value was 4.843. For the same molecule, the “DBIL Mean” value was 2.966, the “DBP Mean” value was 75.37 and the “ENDOM Mean” value was 13.44. The “Endothelin Mean” value was 4.159, the “FABP3 Mean” value was 2351 and the “FABP4 Mean” value was 11504.54286. For the same molecule, the “FGF1M Mean” value was 22.57, the “FGF2M Mean” value was 12.69 and the “FGF19M Mean” value was 19.74. For the same molecule, the “FGF23M Mean” value was 37.07, the “G30 Mean” value was 7.623 and the “G60 Mean” value was 9.074. The “G120 Mean” value was 9.171, the “G180 Mean” value was 7.941 and the “GIP0 Mean” value was 80.26. For the same molecule, the “GIP30 Mean” value was 219.1, the “GIP60 Mean” value was 258.945 and the “GIP120 Mean” value was 264. The “GIP180 Mean” value was 201.6, the “GMCSFM Mean” value was 64.62 and the “GO Mean” value was 6.607. For the same molecule, the “HB Mean” value was 140.6, the “HBA1C Mean” value was 6.425 and the “HDL Mean” value was 2.989. The “HGF Mean” value was 434.2, the “HIP Mean” value was 98.83 and the “HOMA.IR Mean” value was 2.487. For the same molecule, the “IFNr1 Mean” value was 42.1, the “IL1B Mean” value was 0.5324 and the “IL1bM Mean” value was 14.66. The “IL2M Mean” value was 53.46, the “IL4M Mean” value was 30.73 and the “IL5M Mean” value was 38.44. The “IL6M Mean” value was 55.85, the “IL6 Mean” value was 4.846 and the “IL8 Mean” value was 11.92. The “IL9M Mean” value was 84.63, the “IL10 Mean” value was 2.301 and the “IL12 Mean” value was 10.12. For the same molecule, the “IL13 Mean” value was 311.7, the “IL15M Mean” value was 333.3 and the “IL17AM Mean” value was 33.74. For the same molecule, the “IL17EM Mean” value was 22.24, the “IL17FM Mean” value was 181.4 and the “IL21 Mean” value was 29.13. For the same molecule, the “IL22M Mean” value was 42.5, the “IL23M Mean” value was 39.35 and the “IL27 Mean” value was 61.28. For the same molecule, the “IL28a Mean” value was 20.04, the “IL31M Mean” value was 113 and the “IL33M Mean” value was 42.13. For the same molecule, the “INS0 Mean” value was 8.284, the “INS30 Mean” value was 14.5 and the “INS60 Mean” value was 23.7. For the same molecule, the “INS120 Mean” value was 30.33, the “INS180 Mean” value was 22.83 and the “K Mean” value was 7.893. For the same molecule, the “LBP Mean” value was 17.36, the “LDL Mean” value was 1.242 and the “LEPTIN Mean” value was 6481. The “LPA Mean” value was 32.841, the “Lymph Mean” value was 28.87 and the “MCP1 Mean” value was 256.6. For the same molecule, the “MIP3A Mean” value was 43.77, the “NEU Mean” value was 58.47 and the “NGAL Mean” value was 125535.0294. The “NGF Mean” value was 1.865, the “Na Mean” value was 136.9 and the “PAI1 Mean” value was 52769.94118. For the same molecule, the “PDGFAA Mean” value was 4702, the “PDGFAABB Mean” value was 24130.63636 and the “PP0 Mean” value was 80.32. The “PP30 Mean” value was 331.7, the “PP60 Mean” value was 330.8 and the “PP120 Mean” value was 258.8. The “PP180 Mean” value was 174, the “RANTES Mean” value was 50811.91176 and the “RBC Mean” value was 4.832. For the same molecule, the “RCv Mean” value was 2.58, the “SBP Mean” value was 120.9 and the “TBIL Mean” value was 16.36. For the same molecule, the “TC Mean” value was 4.736, the “TG Mean” value was 1.525 and the “TNFBM Mean” value was 38.44. For the same molecule, the “TNFa Mean” value was 4.773, the “TPRO Mean” value was 70.11 and the “Trophonin M Mean” value was 16.15. The “WAIST Mean” value was 88.45, the “WBC Mean” value was 6.913 and the “WHR Mean” value was 0.8956. For the same molecule, the “bun Mean” value was 329.2, the “creatine Mean” value was 67.61 and the “crp Mean” value was 29.96. For the same molecule, the “egf Mean” value was 183.4, the “fetuinA Mean” value was 400.9 and the “fgf1 Mean” value was 11.66. For the same molecule, the “fgf2 Mean” value was 35.4, the “fgf21M Mean” value was 100.1 and the “fgf21 Mean” value was 0.37. For the same molecule, the “monocyte Mean” value was 5.481, the “mpo Mean” value was 275.8 and the “oscatinM Mean” value was 86.94. The “pCP0 Mean” value was 1099, the “pCP30 Mean” value was 1394 and the “pCP60 Mean” value was 1891. For the same molecule, the “pCP120 Mean” value was 2787, the “pCP180 Mean” value was 2452 and the “pGLP10 Mean” value was 4.564. The “pGLP130 Mean” value was 12.21, the “pGLP160 Mean” value was 13.2 and the “pGLP1120 Mean” value was 10.47. For the same molecule, the “pGLP1180 Mean” value was 7.518, the “pHOMA.IR Mean” value was 2.565 and the “pgh0 Mean” value was 55.75. For the same molecule, the “pgh30 Mean” value was 70.15, the “pgh60 Mean” value was 66.51 and the “pgh120 Mean” value was 58.56. For the same molecule, the “pgh0180 Mean” value was 60.3, the “pgluc0 Mean” value was 37.3 and the “pgluc30 Mean” value was 43.28. The “pgluc60 Mean” value was 43.96, the “pgluc120 Mean” value was 35.95 and the “pgluc180 Mean” value was 32.29. The “pins0 Mean” value was 391, the “pins30 Mean” value was 561.8 and the “pins60 Mean” value was 892.8875. For the same molecule, the “pins120 Mean” value was 1169, the “pins180 Mean” value was 916.7 and the “platelet Mean” value was 214. The “ppyy0 Mean” value was 49.602, the “ppyy30 Mean” value was 55.74 and the “ppyy60 Mean” value was 59.37. For the same molecule, the “ppyy120 Mean” value was 54.45, the “ppyy180 Mean” value was 56.15 and the “rGT Mean” value was 24.82. For the same molecule, the “resistin Mean” value was 14639.64706, the “sicam1 Mean” value was 112.3 and the “svcam1 Mean” value was 484.8. For the same molecule, the “urea Mean” value was 4.731, the “vegfa Mean” value was 475.2 and the “vegfc Mean” value was 106.3. The “vegfd Mean” value was 145.4.
